Source: ChEMBL document CHEMBL1909605, “Cytotoxic and antivascular 1-methyl-4-(3-fluoro-4-methoxyphenyl)-5-(halophenyl)-imidazoles” (Bioorg Med Chem Lett, 2011)
Values after ≈ are worked out from the molar mass of the structure shown. Blank lines part the entries; values can stand above or below the molecule they belong to. Active and inactive are the calls of the source. No cut-off for these calls is given here.

Assays:
L929 = assay: Growth inhibition of mouse L929 cells after 5 days by MTT assay; format: cell-based; settings: L929, 120 h
[1] = Growth inhibition of human KB-3-1 cells after 5 days by MTT assay; format: functional, cell-based; settings: KB 3-1, 120 h
[2] = Growth inhibition of rat kangaroo PtK2 cells after 5 days by MTT assay; format: cell-based; settings: Potorous tridactylus, PtK2, 120 h
NHDF = assay: Growth inhibition of human NHDF cells after 5 days by MTT assay; format: cell-based; settings: 120 h
PtK2 = assay: Disruption of microtubule network in potoroo PtK2 cells at 10 ug/mL after 16 hrs by immunofluorescence staining method; format: cell-based; settings: Potorous tridactylus
PC-3 = assay: Growth inhibition of human PC3 cells after 5 days by MTT assay; format: functional, cell-based; settings: PC-3, 120 h
HUVEC = assay: Antiangiogenic activity against human HUVEC cells assessed as suppression of tube formation after 20 hrs incubation by calcein staining-based fluorescent microscopy; format: functional, cell-based
Tubulin (Sus scrofa) = Tubulin (Sus scrofa) (UniProt P02554+P02550); assay: Inhibition of pig porcine tubulin polymerization at 25 ug/mL by turbidimetric method; format: protein assay; settings: at 25 µg/mL
Chain of Tubulin (Sus scrofa) (P02550 whole entry, looked up): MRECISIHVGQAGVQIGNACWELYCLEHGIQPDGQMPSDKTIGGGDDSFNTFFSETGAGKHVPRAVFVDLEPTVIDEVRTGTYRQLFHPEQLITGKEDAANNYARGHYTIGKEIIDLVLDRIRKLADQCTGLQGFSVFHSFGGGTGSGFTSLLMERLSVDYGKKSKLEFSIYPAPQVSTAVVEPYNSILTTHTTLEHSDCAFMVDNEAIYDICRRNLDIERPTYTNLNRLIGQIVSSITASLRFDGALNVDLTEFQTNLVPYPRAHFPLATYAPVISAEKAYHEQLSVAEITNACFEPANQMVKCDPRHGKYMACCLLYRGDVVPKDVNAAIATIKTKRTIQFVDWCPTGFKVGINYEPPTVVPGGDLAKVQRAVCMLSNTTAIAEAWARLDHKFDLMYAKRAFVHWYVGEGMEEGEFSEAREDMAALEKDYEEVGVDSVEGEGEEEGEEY
Chain of Tubulin (Sus scrofa) (P02554 whole entry, looked up): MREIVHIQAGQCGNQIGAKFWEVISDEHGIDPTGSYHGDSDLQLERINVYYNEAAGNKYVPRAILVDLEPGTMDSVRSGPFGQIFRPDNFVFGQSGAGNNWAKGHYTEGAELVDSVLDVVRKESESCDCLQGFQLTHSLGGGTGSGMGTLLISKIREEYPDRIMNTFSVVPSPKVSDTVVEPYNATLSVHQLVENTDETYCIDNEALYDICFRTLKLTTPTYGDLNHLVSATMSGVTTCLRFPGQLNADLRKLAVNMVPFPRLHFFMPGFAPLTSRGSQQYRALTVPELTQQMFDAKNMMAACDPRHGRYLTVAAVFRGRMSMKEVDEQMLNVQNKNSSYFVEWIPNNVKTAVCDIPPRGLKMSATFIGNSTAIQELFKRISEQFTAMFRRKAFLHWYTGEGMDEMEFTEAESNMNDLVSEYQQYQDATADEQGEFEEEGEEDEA

SMILES: COc1ccc(-c2ncn(C)c2-c2cc(Cl)c(OC)c(Cl)c2)cc1F
IC50 (L929): 2.4 µM | IC50 [1]: 1.15 µM | IC50 [2]: 4.3 µM | IC50 (NHDF): 7.18 µM | Activity (PtK2): Active

SMILES: COc1ccc(-c2ncn(C)c2-c2cc(I)c(OC)c(OC)c2)cc1F
IC50 (L929): 0.04 µM | IC50 [1]: 0.09 µM | IC50 [2]: 0.18 µM | IC50 (NHDF): 0.04 µM | Activity (PtK2): Active

SMILES: COc1ccc(-c2c(-c3cc(Cl)c(OC)c(OC)c3)ncn2C)cc1N
IC50 (L929): 0.135 µM | IC50 [1]: 0.016 µM | IC50 [2]: 0.07 µM | IC50 (NHDF): 0.97 µM | MIC (HUVEC): 0.07 µM (≈ 0.0262 µg/mL) | Activity (PtK2): Active

SMILES: COc1ccc(-c2ncn(C)c2-c2cc(Cl)c(OC)c(OC)c2)cc1F
IC50 (L929): 0.22 µM | IC50 [1]: 0.19 µM | IC50 [2]: 0.48 µM | IC50 (NHDF): 0.24 µM | Activity (PtK2): Active

Now from value to molecule, other results behind:

IC50 (PC-3): 0.09 µM | inhibition (Tubulin (Sus scrofa)): Active
SMILES: COc1ccc(-c2c(-c3cc(OC)c(OC)c(OC)c3)ncn2C)cc1N
IC50 (L929): 0.22 µM | IC50 [1]: 0.07 µM | IC50 [2]: 0.45 µM | IC50 (NHDF): 0.14 µM | MIC (HUVEC): 0.29 µM (≈ 0.107 µg/mL) | Activity (PtK2): Active

IC50 (PC-3): 1.8 µM
SMILES: COc1ccc(-c2ncn(C)c2-c2cc(F)c(OC)c(OC)c2)cc1F
IC50 (L929): 10 µM | IC50 [1]: 2 µM | IC50 [2]: 5 µM | IC50 (NHDF): 7.6 µM | MIC (HUVEC): 10 µM (≈ 3.6 µg/mL) | Activity (PtK2): Active

IC50 (PC-3): 0.01 µM | inhibition (Tubulin (Sus scrofa)): Active
SMILES: COc1ccc(-c2ncn(C)c2-c2cc(Br)c(OC)c(Br)c2)cc1F
IC50 (L929): 4.4 µM | IC50 [1]: 0.014 µM | IC50 [2]: 1.2 µM | IC50 (NHDF): 0.4 µM | MIC (HUVEC): 0.27 µM (≈ 0.127 µg/mL) | Activity (PtK2): Active

IC50 (PC-3): 0.003 µM | inhibition (Tubulin (Sus scrofa)): Active
SMILES: COc1ccc(-c2ncn(C)c2-c2cc(I)c(OC)c(I)c2)cc1F
IC50 (L929): 0.018 µM | IC50 [1]: 0.003 µM | IC50 [2]: 0.33 µM | IC50 (NHDF): 3.3 µM | MIC (HUVEC): 0.08 µM (≈ 0.0451 µg/mL) | Activity (PtK2): Active

IC50 (PC-3): 0.07 µM | inhibition (Tubulin (Sus scrofa)): Active
SMILES: COc1ccc(-c2ncn(C)c2-c2cc(Br)c(OC)c(OC)c2)cc1F
IC50 (L929): 0.025 µM | IC50 [1]: 0.005 µM | IC50 [2]: 0.44 µM | IC50 (NHDF): 0.175 µM | MIC (HUVEC): 0.11 µM (≈ 0.0463 µg/mL) | Activity (PtK2): Active

IC50 (PC-3): 16 µM | inhibition (Tubulin (Sus scrofa)): inactive
SMILES: COc1ccc(-c2ncn(C)c2-c2cc(F)c(OC)c(F)c2)cc1F
IC50 (L929): 31 µM | IC50 [1]: 21 µM | IC50 [2]: 23 µM | IC50 (NHDF): 52 µM | MIC (HUVEC): 27 µM (≈ 9.4 µg/mL) | Activity (PtK2): inactive
